US8212051B2, “Process for the preparation of pure irbesartan” (Lek Pharmaceuticals, D.D., priority 2006, dated 2012)
Structures can show the parent of a compound that is named as a salt.

Assays:
[1] = Solubility in boiling acetone (amount of acetone needed to dissolve 1 g); assay type: physicochemical; details: per 1 g substance
[2] = Stability against degradation when dissolved in hot mixture of solvents and extracted; assay type: physicochemical; details: salt dissolved in hot mixture of solvents and extracted; compared with purification via HCl salt

Row | amount of acetone needed to dissolve 1 g [1] | stability against degradation [2] | Structure (SMILES)
1 | 6 mL | more stable against degradation | CCCCC1=NC2(CCCC2)C(=O)N1Cc1ccc(-c2ccccc2-c2nnn[nH]2)cc1 [irbesartan HBr, hydrobromide acid addition salt of 2-n-butyl-3-[[2′-(tetrazol-5-yl)biphenyl-4-yl]methyl]-1.3-diazaspiro[4.4]non-1-en-4-one]
2 | 15 mL |  | CCCCC1=NC2(CCCC2)C(=O)N1Cc1ccc(-c2ccccc2-c2nnn[nH]2)cc1 [irbesartan HCl]
3 | 100 mL |  | CCCCC1=NC2(CCCC2)C(=O)N1Cc1ccc(-c2ccccc2-c2nnn[nH]2)cc1 [irbesartan, 2-n-butyl-3-[[2′-(tetrazol-5-yl)biphenyl-4-yl]methyl]-1.3-diazaspiro[4.4]non-1-en-4-one]
